Data on 25 compounds can be found in patent US20090029979A1, “5-HTX MODULATORS” (BIO-MEDISINSK INNOVASJON AS, priority 2005, published 2009).

Like-named read-outs stand apart in the source and are kept apart here.

Experiment [1] deals with T1, human 5-HT4(b) receptors (Homo sapiens, UniProt Q13639).
T1 construct: expressed in transfected cells
In words: Adenylyl cyclase assay in membranes of HEK293 cells stably expressing human 5-HT4(b) receptors. Type of experiment: biochemical. The note with it: for Kb: where n = 2, ± half-range, read-out: Antagonist pKb value (pKb ± SEM) (converted). The method, then: (§1) The development of HEK293 cell lines stably expressing human 5-HT4(b) receptors was described and published previously (Bach et al. 2001). Briefly, HEK293 cells (ATCC) were grown in Dulbecco's modified Eagle's medium with 10% fetal calf serum and penicillin (100 U/ml) and streptomycin (100 μg/ml). Cells were transfected with plasmid DNA (pcDNA3.1(−) containing human 5-HT4(b) receptor cDNA) using SuperFect Transfection Reagent (QIAGEN) according to the manufacturers protocol. Serial dilutions of transfected cells were plated in 96 well plates containing G418 (geneticin; Amersham) at 0.4 mg/ml, and isolated single colonies of cells transformed to the neomycin-resistant phenotype were expanded and tested for expression of serotonin receptors by measuring serotonin-stimulated adenylyl cyclase activity (Themmen et al. 1993). Transformed cells were always grown in the presence of G418 (0.4 mg/ml). For binding and adenylyl cyclase analysis, stable cell lines were grown and maintained in UltraCULTURE™ general purpose serum-free medium (BioWhittaker, Walkersville, Md., USA), supplemented with L-glutamine (2 mM), penicillin (100 U/ml) and streptomycin (100 μg/ml).
(§2) Membranes were prepared from stably transfected HEK293 cells cultured on 150-mm cell culture dishes and grown to 80% confluence in serum-free medium (UltraCULTURE™, BioWhittaker) with penicillin (10 U/ml) and 2 mM L-Glutamine (BioWhittaker). Cells were washed twice with 10 ml ice-cold HBSS, scraped with a rubber policeman in 10 ml ice-cold HBSS and collected by centrifugation at 800 g for 5 min at 4° C. The cell pellet was resuspended in 1 ml/dish ice-cold STE buffer (27% (w/v) sucrose, 50 mM Tris-HCl, pH 7.5 at 20° C., 5 mM EDTA) and homogenized with an Ultra-Turrax (IKA) homogenizer, using five 10 s bursts with 30 s cooling in ice-water between bursts. To remove nuclei, the homogenate was centrifuged at 300 g for 5 min at 4° C. and the supernatant was further centrifuged at 17000 g for 20 min at 4° C. and the supernatant removed. The crude membrane pellet was resuspended with ten strokes of tight fitting pestle B in a Dounce glass-glass homogenizer in 1 ml/dish ice-cold TE (50 mM Tris-HCl, pH 7.5 at RT, 5 mM EDTA). This procedure was repeated twice and the resuspended membranes were finally aliqouted and flash frozen in liquid nitrogen and stored at −70° C. until use.
Adenylyl cyclase activity was measured by determining conversion of [α-^32P]ATP to [^32P]cAMP in membranes prepared in STE by homogenization of cells grown and washed as described above in a Dounce glass-glass homogenizer by 10 strokes with the tight-fitting pestle. Membranes were kept on ice prior to assay. Adenylyl cyclase activities were measured on 10-μl aliquots in a final volume of 50 μl in the presence of 0.1 mM [α-^32P]ATP (1-2×10^6 cpm/assay), 4 mM MgCl2, 20 μM GTP, 1 mM EDTA, 1 mM [^3H]cAMP (ca. 10,000 cpm/assay), 1 μM 3-isobutyl-1-methyl xanthine (IBMX; Sigma), a nucleoside triphosphate regenerating system consisting of 20 mM creatine phosphate (Sigma), 0.2 mg/ml creatine phosphokinase (Sigma) and 40 U/ml myokinase (Sigma) and additives described in the text and figures. When forskolin (Calbiochem, La Jolla, Calif., USA) was used the concentration was 100 μM. Incubations were for 20 min at 32° C. Cyclic AMP formed was quantified by the double column chromatography system of Salomon et al. (1974) as modified by Bockaert et al. (1976).
(§3) Binding and adenylyl cyclase data were analyzed by non-linear regression using Microsoft Excel with the Solver add-in, using the below equations.
Activation of adenylyl cyclase—The data were fit to the equation
where a is basal adenylyl cyclase activity, b is maximal adenylyl cyclase activity stimulated by the agonist, c is EC50, and x is the concentration of agonist.

The target in experiment [2] is T1, human 5-HT4(b) receptors. The experiment can be described thus: Radioligand binding assay with [3H]GR113808, membranes of HEK293 cells stably expressing human 5-HT4(b) receptors. The method, then:
as §1, §2
Binding assays were performed in 96-well, round-bottom microtiter plates with total reaction volumes of 50-200 μl, containing the indicated concentration of [^3H]GR113808 with or without competing unlabelled ligand in a binding buffer containing 50 mM Tris-HCl (pH 7.5 at RT), 1 mM EDTA, 5 mM EGTA, 2 mM MgCl2, 1 mM ascorbate, 0.1% BSA and 100 μM GTP. The plates were incubated at 23° C. for 60 min and harvested onto UniFilter™-96 GF/C™ (Packard Instrument Co., Meriden, Conn., USA), presoaked in 0.3% polyethyleneimine (Sigma), using a Packard FilterMate Universal Harvester with 96-well format, and washed 4-6 times with approximately 0.25 ml/well of ice-cold buffer, containing 50 mM Tris-HCl (pH 7.0 at RT) and 2 mM MgCl2. The filters were dried and counted at approximately 40% efficiency in a Top-Count liquid scintillation counter (Packard), using 20 μl per filter well of Micro-Scint liquid scintillation cocktail (Packard).
as §3
Competitive binding assays—The data were fit to the equation
where a is non-specific binding, b is total binding in the absence of competitor, c is IC50, and x is the concentration of competitor. Where relevant, relative binding data were obtained by recalculating the data using a=0 and b=100.
IC50 values from competitive binding assays were converted to Kb values by the method of Cheng and Prusoff (1973).

The mark [3] stands for this setting: [3H]GR113808, HEK293 membranes, human 5-HT4(b), where n = 2, ± half-range, read-out: Binding affinity (pKd value) (pKd ± SEM) (converted).

T1 sequence (Q13639 whole entry): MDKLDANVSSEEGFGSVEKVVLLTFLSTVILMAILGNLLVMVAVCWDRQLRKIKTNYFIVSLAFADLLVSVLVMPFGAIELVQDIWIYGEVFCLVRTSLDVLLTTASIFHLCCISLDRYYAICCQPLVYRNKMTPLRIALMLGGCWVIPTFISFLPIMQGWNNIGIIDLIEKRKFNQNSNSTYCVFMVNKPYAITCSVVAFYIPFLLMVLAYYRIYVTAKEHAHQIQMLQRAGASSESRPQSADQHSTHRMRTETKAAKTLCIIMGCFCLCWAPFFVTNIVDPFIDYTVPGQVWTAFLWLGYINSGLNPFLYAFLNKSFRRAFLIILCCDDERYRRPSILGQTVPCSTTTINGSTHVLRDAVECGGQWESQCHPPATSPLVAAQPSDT

With `O=C(O)CCCN1CCC(NC(=O)c2cccc3ccccc23)CC1` [Example 17], in experiment [1], the Kb is 38000 nM. The Kd in experiment [2] (setting [3]) was 1000 nM.
Regarding `CCOC(=O)CCCN1CCC(CNC(=O)c2cc(Cl)c(N)cc2OC)CC1` [Example 40], in experiment [1], the Agonist/Antagonist properties entry was “Partial agonist” and the Kb was 66.1 nM. Besides, in experiment [2] (setting [3]), the Kd was 20 nM.
For `CC(C)n1nc(C(=O)NC2CCN(Cc3ccc(C(=O)O)cc3)CC2)c2ccccc21` [Example 36], the Kb in experiment [1] was 1150 nM. Also, the Kd in experiment [2] (setting [3]) is 2190 nM.
On to `Cn1cc(C(=O)OCC2CCN(CCNS(C)(=O)=O)CC2)c2ccccc21` [GR113808, 1-methyl-1H-indole-3-carboxylic acid, [1-[2-[(methylsulfonyl)amino]ethyl]-4-piperidinyl]methyl ester, reference compound], for which, in experiment [1], the Agonist/Antagonist properties entry is given as “Antagonist” and the Kb was 0.537 nM. Besides, in experiment [2] (setting [3]), the Kd is 0.0813 nM.
In the case of `O=C(NCC1CCN(Cc2ccccc2)CC1)c1c2n(c3ccccc13)CCCO2` [Example 47], in experiment [1], the Agonist/Antagonist properties result was “Antagonist” and the Kb is 0.427 nM. The same compound showed a Kd in experiment [2] of 0.158 nM.
Regarding `CCOC(=O)CCCN1CCC(CNC(=O)c2c[nH]c3ccccc23)CC1` [Example 60], in experiment [1], the Agonist/Antagonist properties result was “Antagonist” and the Kb was 1620 nM. For the same compound, the Kd in experiment [2] (setting [3]) was 110 nM.
The corresponding values for `CCOC(=O)CCCN1CCC(COC(=O)c2cccc3ccccc23)CC1` [Example 25] are “Antagonist”, 6.61 nM and 6.46 nM.
The corresponding values for `CCOP(=O)(CCN1CCC(CNC(=O)c2c3n(c4ccccc24)CCCO3)CC1)OCC` [Example 53] are “Antagonist”, 2.51 nM and 1.32 nM.
For the compound `CCOC(=O)CCCN1CCC(CNC(=O)c2c3n(c4ccccc24)CCCO3)CC1` [Example 49], in experiment [1], the Agonist/Antagonist properties entry is recorded as “Antagonist” and the Kb is 1.55 nM. In experiment [2], this compound had a Kd of 0.123 nM.
For `CC(C)n1nc(C(=O)NC2CCN(Cc3ccc(C(=O)OCC(Cl)(Cl)Cl)cc3)CC2)c2ccccc21` [Example 35], in experiment [1], the Agonist/Antagonist properties entry was “Partial agonist” and the Kb is 724 nM. In addition, the Kd in experiment [2] (setting [3]) was 1200 nM.
For `O=C(O)CCCN1CCC(COC(=O)c2c[nH]c3ccccc23)CC1` [Example 13, 1H-indole-3-carboxylic acid 1-(3-carboxy-propyl)-piperidin-4-ylmethyl ester] the same measures were “Antagonist”, 7.08 nM and 0.912 nM.
`O=C(CCCN1CCC(COC(=O)c2c[nH]c3ccccc23)CC1)OCC(Cl)(Cl)Cl` [Example 12, 1H-indole-3-carboxylic acid 1-[3-(2,2,2-trichloroethyl-ethoxycarbonyl)-propyl]-piperidine-4-ylmethyl ester]: the Kb in experiment [1] is 0.741 nM. In addition, in experiment [2] (setting [3]), the Kd was 5.01 nM.
Turning to `CCOC(=O)CCCN1CCC(NC(=O)c2nn(C(C)C)c3ccccc23)CC1` [Example 31], in experiment [1], the Agonist/Antagonist properties entry is given as “Partial agonist” and the Kb was 178 nM. In addition, in experiment [2] (setting [3]), the Kd is 67.6 nM.
As to `CCCCN1CCC(CNC(=O)c2c3n(c4ccccc24)CCCO3)CC1` [SB207266, reference compound], the Agonist/Antagonist properties entry in experiment [1] was “Antagonist”.
Consider `O=C(O)CCCN1CCC(COC(=O)c2cccc3ccccc23)CC1` [Example 26], for which, in experiment [1], the Agonist/Antagonist properties entry is “Weak partial” and the Kb was 69.2 nM. In addition, in experiment [2] (setting [3]), the Kd was 12.9 nM.
Turning to `O=C(O)CN1CCN(S(=O)(=O)CCCN2CCC(CNC(=O)c3cccc4c3OCCO4)CC2)CC1` [Example 67], in experiment [1], the Agonist/Antagonist properties result is given as “Antagonist” and the Kb was 2.75 nM. The Kd in experiment [2] (setting [3]) was 0.813 nM.
On to `O=C(O)CCCN1CCC(CNC(=O)c2c[nH]c3ccccc23)CC1` [Example 62], for which the Kb in experiment [1] was 28200 nM. The Kd in experiment [2] (setting [3]) is 3630 nM.
Regarding `CC(C)n1nc(C(=O)NC2CCN(CCCC(=O)O)CC2)c2ccccc21` [Example 33], in experiment [1], the Agonist/Antagonist properties entry is “Partial agonist” and the Kb was 1050 nM. Further, the Kd in experiment [2] (setting [3]) was 692 nM.
The corresponding values for `CCOP(=O)(CCN1CCC(COC(=O)c2cccc3ccccc23)CC1)OCC` [Example 27] are “Weak partial”, 19.1 nM and 15.8 nM.
Regarding `COC(=O)CCCCCN1CCC(CNC(=O)c2c3n(c4ccccc24)CCCO3)CC1` [Example 50], in experiment [1], the Agonist/Antagonist properties entry was “Antagonist” and the Kb is 0.759 nM. In experiment [2], this compound had a Kd of 0.135 nM.
`CCOC(=O)CCCN1CCC(NC(=O)c2cccc3ccccc23)CC1` [Example 18]: in experiment [1], the Agonist/Antagonist properties entry was “Antagonist” and the Kb was 3240 nM. For the same compound, the Kd in experiment [2] (setting [3]) was 1580 nM.
For `O=C(OCC1CCN(Cc2ccccc2)CC1)c1cccc2ccccc12` [Example 22, 1-[(1-benzylpiperidin-4-yl)carboxymethyl] napthalene] the same measures were “Weak partial”, 11.2 nM and 42.7 nM.
As for `O=C(O)CCCN1CCC(CNC(=O)c2c3n(c4ccccc24)CCCO3)CC1` [Example 52], the Kb in experiment [1] is 11 nM. Besides, the Kd in experiment [2] (setting [3]) was 2.09 nM.
For `CC(C)n1nc(C(=O)NC2CCN(Cc3ccccc3)CC2)c2ccccc21` [Example 29, N-(1-benzylpiperidin-4-yl)-1-isopropylindazole-3-carboxamide], in experiment [1], the Agonist/Antagonist properties result is “Partial agonist” and the Kb was 309 nM. In addition, the Kd in experiment [2] (setting [3]) was 200 nM.
Turning to `O=C(CCCN1CCC(CNC(=O)c2c3n(c4ccccc24)CCCO3)CC1)OCC(Cl)(Cl)Cl` [Example 51], the Kb in experiment [1] was 0.537 nM. In experiment [2], this compound showed a Kd of 0.263 nM.
